Experimental data: patent US12673052B2, “Combinations for the treatment of cancer” (Exelixis, Inc., priority 2020, dated 2026)
pIC50: −log10 of the molar value.

How the values were obtained:
[1] = GLP safety pharmacology: neurobehavioral and respiratory; format: in vivo, rats; conditions: single oral doses as high as 60 mg/kg; within 24 hours postdose
Protocol: The nonclinical toxicity of Compound 1 was characterized in dose range-finding 7-day and definitive 28-day repeat-dose studies in rats and dogs, and in in vitro bacterial and mammalian genotoxicity bioassays. Compound 1 was also evaluated in definitive neurobehavioral, respiratory and cardiovascular safety pharmacology studies.

[2] = Liver microsomal stability assay; format: in vitro ADME, human; conditions: liver microsomes
Protocol: In the liver microsomal stability assay, CLint was 0.601 mL/min/g liver in mouse, 0.563 mL/min/g liver in rat, 0.315 mL/min/g liver in dog, 0.734 mL/min/g liver in monkey, and 0.639 mL/min/g liver in human. In the hepatocyte stability assay, Compound 1 CLint was 0.373 mL/min/g liver in mouse, 0.285 mL/min/g liver in rat, 1.08 mL/min/g liver in dog, 0.533 mL/min/g liver in monkey, and 0.317 mL/min/g liver in human.

[3] = target: MER (Homo sapiens, UniProt Q12866); experiment: RTK autophosphorylation ELISA, 293A cells transfected with receptor expression vector; format: cell-based; set-up: expressed in transfected cells; host or cells: 293A; conditions: no ligand, read-out: Cellular IC50
Chain of MER (Q12866 21-999): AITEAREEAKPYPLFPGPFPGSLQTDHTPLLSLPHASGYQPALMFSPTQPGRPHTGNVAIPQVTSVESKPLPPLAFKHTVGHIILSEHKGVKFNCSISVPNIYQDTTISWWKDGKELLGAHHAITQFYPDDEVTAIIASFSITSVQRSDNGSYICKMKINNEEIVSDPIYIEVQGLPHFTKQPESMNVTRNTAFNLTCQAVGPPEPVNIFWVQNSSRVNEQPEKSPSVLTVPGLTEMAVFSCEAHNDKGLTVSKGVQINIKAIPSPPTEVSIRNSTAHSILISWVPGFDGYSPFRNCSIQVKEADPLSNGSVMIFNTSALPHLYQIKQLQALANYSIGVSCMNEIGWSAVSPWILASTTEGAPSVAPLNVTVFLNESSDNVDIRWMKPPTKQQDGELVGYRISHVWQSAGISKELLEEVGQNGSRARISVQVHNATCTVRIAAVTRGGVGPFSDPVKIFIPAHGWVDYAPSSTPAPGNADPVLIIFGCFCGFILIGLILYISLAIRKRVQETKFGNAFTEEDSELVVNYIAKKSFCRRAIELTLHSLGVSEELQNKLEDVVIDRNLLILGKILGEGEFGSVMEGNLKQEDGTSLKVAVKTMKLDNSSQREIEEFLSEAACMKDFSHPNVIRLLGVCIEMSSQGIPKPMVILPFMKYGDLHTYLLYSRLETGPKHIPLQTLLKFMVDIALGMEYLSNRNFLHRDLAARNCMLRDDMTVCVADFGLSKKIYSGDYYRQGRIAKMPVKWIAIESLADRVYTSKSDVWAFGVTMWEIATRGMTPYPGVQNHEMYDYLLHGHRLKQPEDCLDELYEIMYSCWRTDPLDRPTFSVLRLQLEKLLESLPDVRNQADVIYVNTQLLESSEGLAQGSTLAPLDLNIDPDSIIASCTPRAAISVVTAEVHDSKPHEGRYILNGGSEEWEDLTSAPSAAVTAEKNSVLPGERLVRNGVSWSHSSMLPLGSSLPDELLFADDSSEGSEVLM
Protocol: (§1) The activity of Compound 1 was evaluated in cell-based assays that assessed the mechanistic effects of the compound in tumor and normal cells. Consistent with the biochemical data, Compound 1 is a potent inhibitor of cellular RTKs as assessed by analysis of receptor autophosphorylation as measured by enzyme-linked immunosorbent assay. Assays were performed using cell lines (PC-3, HUVEC, and A-172) stimulated with ligands to their respective receptors to induce autophosphorylation (MET, VEGFR2, and AXL) or a cell line (293A) transfected with an expression vector encoding the receptor of interest (MER). Inhibition of endogenous phosphorylated MET by Compound 1 in Hs 746T gastric carcinoma cells was also investigated due to the presence of the skip-splice mutation of exon 14 in the MET gene. This MET exon 14 alteration leads to increased MET stability and oncogenic activation, including constitutive MET phosphorylation. Also this mutation is known to occur in 3% of lung adenocarcinoma patients and to be sensitive to MET-targeted therapies (Frampton et al 2015).

[4] = target: T1, MET (Homo sapiens, UniProt P08581, DEL964-1010); experiment: Endogenous phosphorylated MET in Hs 746T gastric carcinoma cells (MET exon 14 skip-splice mutation); format: cell-based; conditions: MET (Hs 746T), no ligand; read-out: Cellular IC50
T1 construct: endogenous in cells; host or cells: Hs 746T gastric carcinoma cells
T1 sequence (P08581 with tags, fused parts or gaps DEL964-1010 limits assumed): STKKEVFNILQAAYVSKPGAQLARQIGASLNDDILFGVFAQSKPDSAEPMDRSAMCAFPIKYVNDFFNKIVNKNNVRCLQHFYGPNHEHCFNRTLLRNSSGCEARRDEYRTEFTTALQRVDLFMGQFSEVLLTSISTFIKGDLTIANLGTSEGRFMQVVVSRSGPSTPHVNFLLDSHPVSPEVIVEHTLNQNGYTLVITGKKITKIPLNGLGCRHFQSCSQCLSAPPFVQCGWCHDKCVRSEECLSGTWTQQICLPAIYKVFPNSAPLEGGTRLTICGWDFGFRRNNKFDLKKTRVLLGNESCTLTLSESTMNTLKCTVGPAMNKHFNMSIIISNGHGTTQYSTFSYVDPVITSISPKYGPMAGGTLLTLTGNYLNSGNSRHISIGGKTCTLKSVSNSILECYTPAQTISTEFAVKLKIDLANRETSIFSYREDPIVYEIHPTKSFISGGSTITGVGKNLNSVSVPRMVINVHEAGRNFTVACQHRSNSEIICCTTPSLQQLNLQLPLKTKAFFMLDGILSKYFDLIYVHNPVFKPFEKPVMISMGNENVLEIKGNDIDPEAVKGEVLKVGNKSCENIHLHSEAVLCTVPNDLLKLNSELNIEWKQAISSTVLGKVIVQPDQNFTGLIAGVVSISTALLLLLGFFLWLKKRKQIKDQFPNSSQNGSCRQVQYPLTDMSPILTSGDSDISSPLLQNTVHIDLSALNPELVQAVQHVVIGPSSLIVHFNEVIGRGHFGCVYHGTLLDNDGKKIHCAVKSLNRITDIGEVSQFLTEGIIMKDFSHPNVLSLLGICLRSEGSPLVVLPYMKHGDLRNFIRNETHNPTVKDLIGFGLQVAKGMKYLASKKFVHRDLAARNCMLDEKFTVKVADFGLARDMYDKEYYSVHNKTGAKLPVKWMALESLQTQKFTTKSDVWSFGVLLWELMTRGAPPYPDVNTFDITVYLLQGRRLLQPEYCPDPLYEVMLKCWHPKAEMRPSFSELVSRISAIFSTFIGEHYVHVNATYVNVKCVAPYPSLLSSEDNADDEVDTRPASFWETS
T1 sequence (P08581 25-307 partner limits assumed): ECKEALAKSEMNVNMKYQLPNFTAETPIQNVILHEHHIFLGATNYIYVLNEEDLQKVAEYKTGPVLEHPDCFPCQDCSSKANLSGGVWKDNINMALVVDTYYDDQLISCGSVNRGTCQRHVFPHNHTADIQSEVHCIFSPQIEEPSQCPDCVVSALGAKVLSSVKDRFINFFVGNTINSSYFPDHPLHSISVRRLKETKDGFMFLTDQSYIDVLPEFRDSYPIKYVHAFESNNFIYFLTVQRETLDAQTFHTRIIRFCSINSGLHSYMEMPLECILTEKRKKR
Protocol: as §1

[5] = tested on: SNU-5; experiment: Tumor growth inhibition in xenograft model; format: in vivo, CB.17 SCID mice
Protocol: Three human tumor cell lines, NCI-H441, MDA-MB-231, and SNU-5, were selected for use in tumor xenograft studies using athymic nude, NSG and CB.17 SCID mice, respectively. Pharmacodynamic modulation of MET phosphorylation was also measured in the NCI-H441 and SNU-5 xenografts. Tumor-bearing mice were orally dosed once-daily for 14 days (qd×14), and the tumors were resected and processed for MET phosphorylation analysis by Western blot. […]

[6] = tested on: advanced solid tumors; experiment: Phase 1 first-in-human Study Compound 1-001 (NCT03845166): safety (DLT, adverse events) and preliminary clinical activity; format: in vivo
Excerpt: The maximum tolerated dose (MTD) and/or recommended dose (RD) of Compound 1 single-agent therapy and ICI combination therapy will be determined in a Dose-Escalation Stage. The preliminary efficacy of Compound 1 as single agent and as ICI combination therapy will be determined in a Cohort-Expansion Stage with tumor-specific expansion cohorts. As of 14 Dec. 2020, dose escalation of Compound 1 as single agent and in combination therapy with atezolizumab was ongoing: 19 subjects were enrolled in single agent cohorts across six dose levels (PIB: 10, 20 mg; Tablet: 20, 40, 80, 140 mg); three subjects were enrolled in combination therapy with atezolizumab at one dose level (Compound 1 40 mg po qd plus atezolizumab 1200 mg IV q3w). As of 14 Dec. […] The majority of reported adverse events (AEs) were of low-grade severity (Grade 1-2) with five subjects having experienced treatment-related Grade 3 events.
In the Compound 1 single-agent dose-escalation cohorts, study drug will be administered qd for the first 28 days, which comprises the Dose-Limiting Toxicity (DLT) Evaluation Period. At the end of the 28-day DLT period, the Cohort Review Committee will review all available safety and PK data for cohorts containing at least 3 subjects and dose escalation to the next cohort may proceed if 0 out of 3 subjects or […] subjects experience(s) a DLT (as defined below). Dose escalation to the next cohort will not exceed a doubling of the Compound 1 dose; however, the Cohort Review Committee may decide to institute a less-than-doubling escalation between cohorts based on evaluation of safety and PK results from the current and previous cohorts.
Dose-limiting toxicity is defined as any of the following treatment-emergent AEs occurring during the DLT Evaluation Period for Compound 1 as single-agent therapy: • Any treatment-emergent AE that in the opinion of the Cohort Review Committee is of potential clinical significance such that further dose escalation of Compound 1 would expose subjects to unacceptable risk • Non-hematologic toxicity: treatment-emergent […] AEs • The following hematologic toxicities that are treatment-emergent: • Grade 3 thrombocytopenia with clinically significant bleeding • Grade 4 thrombocytopenia • Grade 4 neutropenia of 4 days duration • Grade 3 neutropenia of any duration with fever (single temperature of ≥38.3° C. [101.0° F.] or sustained temperature of ≥38.0° C. [100.4° F.] for ≥1 hour) or documented infection • Grade 4 anemia • Inability to take 75% of the total planned Compound 1 dose for the DLT Evaluation Period because of a treatment-emergent AE leading to a dose reduction and/or interruption • Any AE experienced during the DLT Evaluation Period that results in permanent discontinuation of Compound 1 For subjects receiving Compound 1 as combination therapy with atezolizumab or avelumab, the above in addition to the following are defined as DLTs: • Any related Grade 3 AE which is unexpected in severity and/or duration compared with the known safety profiles of Compound 1 and atezolizumab or avelumab when used as single agents, and that cannot be managed by dose modification (reduction or interruption) and adequate supportive care, and requires permanent discontinuation of Compound 1 and/or atezolizumab or avelumab. • Any AE experienced during the DLT Evaluation Period that results in permanent discontinuation of Compound 1 and/or atezolizumab or avelumab Note: AEs are presumed attributable to study drug. […]

CNC(=O)c1cc2c(Oc3ccc(NC(=O)C4(C(=O)Nc5ccc(F)cc5)CC4)cc3)ccnc2cc1OC [Compound 1, 1-N′-(4-Fluorophenvl)-1-N-[4-[7-methoxy-6-(methylcarbamovl)quinolin-4-yl]oxyphenyl]cyclopropane-1,1-dicarboxamide]
neurobehavioral and respiratory system effects [1]: no adverse neurobehavioral effects or toxicologically significant respiratory system effects | CLint [2]: 0.639 mL/min/g liver | pIC50 [3]: 8.15 | pIC50 [4]: 7.59 | TGI (%) ([5]; 3 mg/kg qd × 14 oral, p-value 0.0052): 54.2% | TGI (%) ([5]; 10 mg/kg qd × 14 oral, p-value <0.0001): 94.7% | subjects with treatment-related Grade 3 events ([6]; as of 14 Dec. 2020): five subjects | treatment-related Grade 4 or Grade 5 events ([6]; as of 14 Dec. 2020): no treatment-related Grade 4 or Grade 5 events | tolerability ([6]; single agent and in combination with ICI therapy): well tolerated | preliminary clinical activity ([6]; single agent therapy and atezolizumab combination therapy cohorts): prolonged disease stabilization and tumor regressions | DLTs observed among completed dose levels ([6]; single agent, one subject at 140 mg po qd, Grade 3 uncontrolled hypertension): one DLT
